From ChEMBL document CHEMBL5154649, “Design, synthesis, and characterization of novel aminoalcohol quinolines with strong in vitro antimalarial activity” (Eur J Med Chem, 2022)
Active and inactive are the calls of the source. The calls are words filed in the database; no cut-off is given here.

Legend:
[1] = Apparent permeability across apical to basolateral side in human Caco-2/TC7 cells at 20 uM incubated for 2 hrs by LC-MS/MS analysis; type: ADME, cell-based, Caco2/TC7
[2] = Apparent permeability across apical to basolateral side in human Caco-2/TC7 cells assessed as drug recovery at 20 uM incubated for 2 hrs by LC-MS/MS analysis; type: ADME, cell-based, Caco2/TC7; settings: read-out: Drug recovery
[3] = target: Voltage-gated inwardly rectifying potassium channel KCNH2 (Homo sapiens, UniProt Q12809); assay: Inhibition of hERG channel expressed in CHO cells at holding potential of -80 mV by whole cell patch clamp method; type: toxicity, cell-based
Chain of Voltage-gated inwardly rectifying potassium channel KCNH2 (Q12809 whole entry): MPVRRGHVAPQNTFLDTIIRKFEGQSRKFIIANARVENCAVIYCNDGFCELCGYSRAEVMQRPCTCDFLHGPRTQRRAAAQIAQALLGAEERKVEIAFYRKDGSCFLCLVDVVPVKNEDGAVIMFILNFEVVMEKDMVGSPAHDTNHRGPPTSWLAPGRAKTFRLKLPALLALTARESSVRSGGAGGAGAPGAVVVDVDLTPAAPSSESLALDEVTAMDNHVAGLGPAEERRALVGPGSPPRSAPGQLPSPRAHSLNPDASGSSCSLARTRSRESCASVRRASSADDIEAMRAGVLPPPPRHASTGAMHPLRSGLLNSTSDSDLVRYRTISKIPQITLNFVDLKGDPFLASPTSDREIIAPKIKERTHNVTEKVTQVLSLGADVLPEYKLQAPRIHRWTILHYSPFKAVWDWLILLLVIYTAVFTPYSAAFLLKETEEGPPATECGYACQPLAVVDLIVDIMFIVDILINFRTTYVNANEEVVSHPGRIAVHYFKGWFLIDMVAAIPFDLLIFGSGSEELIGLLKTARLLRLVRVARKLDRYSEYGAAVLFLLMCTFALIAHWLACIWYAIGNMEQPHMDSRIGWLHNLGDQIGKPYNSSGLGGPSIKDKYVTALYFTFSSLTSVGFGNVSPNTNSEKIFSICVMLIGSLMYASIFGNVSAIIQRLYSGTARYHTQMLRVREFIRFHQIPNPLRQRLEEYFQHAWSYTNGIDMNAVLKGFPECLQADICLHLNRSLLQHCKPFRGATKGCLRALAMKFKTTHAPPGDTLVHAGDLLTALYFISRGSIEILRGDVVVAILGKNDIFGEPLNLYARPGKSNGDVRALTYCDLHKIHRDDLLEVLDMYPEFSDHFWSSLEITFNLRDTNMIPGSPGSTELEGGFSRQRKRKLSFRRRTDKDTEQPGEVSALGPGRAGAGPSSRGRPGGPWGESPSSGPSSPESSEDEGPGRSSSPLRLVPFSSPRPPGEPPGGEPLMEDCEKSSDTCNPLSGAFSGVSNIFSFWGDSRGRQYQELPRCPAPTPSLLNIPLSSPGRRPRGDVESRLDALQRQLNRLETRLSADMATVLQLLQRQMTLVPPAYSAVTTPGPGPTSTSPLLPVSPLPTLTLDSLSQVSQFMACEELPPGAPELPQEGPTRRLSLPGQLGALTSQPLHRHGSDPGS

Plasmodium berghei [4] = assay: Antimalarial activity against Plasmodium berghei ANKA infected in BALB/c mouse assessed as increase in animal survival rate at 9 mg/kg, ip administered daily for 5 days and measured for 30 days; type: functional, organism-based; settings: time 30.0 day
Plasmodium falciparum [5] = assay: Antiplasmodial activity against CQ-susceptible Plasmodium falciparum 3D7 assessed as inhibition of parasite growth measured after 48 hrs by SYBR Green 1 dye based fluorescence assay; type: functional, organism-based; settings: 3D7, 48 h
Plasmodium falciparum [6] = assay: Antiplasmodial activity against CQ-resistant Plasmodium falciparum W2 assessed as inhibition of parasite growth measured after 48 hrs by SYBR Green 1 dye based fluorescence assay; type: functional, organism-based; settings: W2, 48 h
Plasmodium falciparum [7] = assay: Selectivity index, ratio of IC50 for antiplasmodial activity against CQ-susceptible Plasmodium falciparum 3D7 to IC50 for antiplasmodial activity against CQ-resistant Plasmodium falciparum W2 by SYBR Green 1 dye based fluorescence assay; type: functional
[8] = Cytotoxicity against human HepG2 cells assessed as reduction in cell viability incubated for 72 hrs by MTT assay; type: toxicity, cell-based
[9] = Cytotoxicity against Chinese hamster CHO cells assessed as reduction in cell viability incubated for 24 hrs by MTT assay; type: toxicity, cell-based, Cricetulus griseus
[10] = Cytotoxicity against human THP-1 cells assessed as reduction in cell viability incubated for 72 hrs by MTT assay; type: toxicity, cell-based
[11] = Cytotoxicity against human HFF cells assessed as reduction in cell viability incubated for 72 hrs by MTT assay; type: toxicity, cell-based
[12] = Selectivity index, ratio of IC50 for cytotoxicity against human HepG2 cells to IC50 for antiplasmodial activity against Plasmodium falciparum 3D7 infected in human erythrocytes by HRP2-ELISA; type: toxicity, cell-based; settings: read-out: Ratio IC50
[13] = Selectivity index, ratio of IC50 for cytotoxicity against chinese hamster CHO cells to IC50 for antiplasmodial activity against Plasmodium falciparum 3D7 infected in human erythrocytes by HRP2-ELISA; type: toxicity, cell-based; settings: read-out: Ratio IC50
[14] = Selectivity index, ratio of IC50 for cytotoxicity against human THP-1 cells to IC50 for antiplasmodial activity against Plasmodium falciparum 3D7 infected in human erythrocytes by HRP2-ELISA; type: toxicity, cell-based; settings: read-out: Ratio IC50
[15] = Selectivity index, ratio of IC50 for human HFF cells to IC50 for antiplasmodial activity against Plasmodium falciparum 3D7 infected in human erythrocytes by HRP2-ELISA; type: toxicity, cell-based; settings: read-out: Ratio IC50
Plasmodium falciparum [16] = assay: Antiplasmodial activity against CQ-susceptible Plasmodium falciparum 3D7 infected in human erythrocytes assessed as inhibition of parasite growth measured after 72 hrs by HRP2-ELISA; type: functional, organism-based; settings: 3D7, Erythrocyte
Plasmodium falciparum [17] = assay: Antiplasmodial activity CQ-resistant Plasmodium falciparum W2 infected in human erythrocytes assessed as inhibition of parasite growth measured after 72 hrs by HRP2-ELISA; type: functional, organism-based; settings: W2, Erythrocyte
Plasmodium falciparum [18] = assay: Selectivity index, ratio of IC50 for antiplasmodial activity against CQ-susceptible Plasmodium falciparum 3D7 to IC50 for antiplasmodial activity CQ-resistant Plasmodium falciparum W2 by HRP2-ELISA; type: functional
[19] = Metabolic stability in mouse liver microsomes assessed as intrinsic clearance at 0.5 uM incubated for 30 mins by LC-MS/MS analysis; type: ADME, Microsome; settings: read-out: CLH
[20] = Metabolic stability in rat liver microsomes assessed as intrinsic clearance at 0.5 uM incubated for 30 mins by LC-MS/MS analysis; type: ADME, Microsome; settings: read-out: CLH
[21] = Metabolic stability in human liver microsomes assessed as intrinsic clearance at 0.5 uM incubated for 30 mins by LC-MS/MS analysis; type: ADME, Microsome; settings: read-out: CLH
[22] = Metabolic stability in human hepatocytes assessed as intrinsic clearance incubated up to 24 hrs measured per 10^6 cells by LC-MS/MS analysis; type: ADME, cell-based, Hepatocyte
Plasmodium berghei [23] = assay: Antimalarial activity against Plasmodium berghei ANKA infected in BALB/c mouse assessed as time required for clearance of blood parasites at 9 mg/kg, ip administered daily for 5 days; type: functional; settings: time 5 day

Papp A→B at 2 h, 20 µM [1] [×10⁻⁶ cm/s] | recovery at 2 h, 20 µM [2] [%] | Compound | IC50 (Plasmodium falciparum [5]) [nM] | IC50 (Plasmodium falciparum [6]) [nM] | Ratio IC50 (Plasmodium falciparum [7]) | IC50 at 72 h [8] [nM] | IC50 at 24 h [9] [nM] | IC50 at 72 h [10] [nM] | IC50 at 72 h [11] [nM] | selectivity ratio [12] | selectivity ratio [13] | selectivity ratio [14] | selectivity ratio [15] | IC50 (Plasmodium falciparum [16]) [nM] | IC50 (Plasmodium falciparum [17]) [nM] | Ratio IC50 (Plasmodium falciparum [18]) | other results
11.4 | 99 | CCCCCNC[C@@H](O)c1cc(C(F)(F)F)nc2c(C(F)(F)F)cccc12 | – | – | – | – | – | – | – | – | – | – | – | – | – | – | IC50 [3]: 8800 nM
– | – | O[C@@H](c1cc(C(F)(F)F)nc2c(C(F)(F)F)cccc12)[C@H]1CCCCN1 (relative stereo) | – | – | – | – | – | – | – | – | – | – | – | – | – | – | Activity (Plasmodium berghei [4]): Active
– | – | COC[C@H](Cc1ccccc1)NC[C@H](O)c1cc(C(F)(F)F)nc2c(C(F)(F)F)cccc12 | 17.4 | 11.4 | 1.5 | 9600 | 37600 | 16900 | 36700 | 414 | 1620 | 728 | 1580 | 23.2 | 15.4 | 1.5 | –
– | – | OC[C@@H](Cc1ccccc1)NC[C@H](O)c1cc(C(F)(F)F)nc2c(C(F)(F)F)cccc12 | 36.2 | 54.3 | 0.7 | 16800 | 26600 | 7800 | 37400 | 158 | 250 | 73 | 351 | 106 | 63.8 | 1.7 | –
3.7 | 86 | CCCCCNC[C@H](O)c1cc(C(F)(F)F)nc2c(C(F)(F)F)cccc12 | – | – | – | – | – | – | – | – | – | – | – | – | – | – | IC50 [3]: 5600 nM
– | – | OC[C@H](Cc1ccccc1)NC[C@H](O)c1cc(C(F)(F)F)nc2c(C(F)(F)F)cccc12 (single isomer, unassigned) | 30.9 | 3.3 | 9.4 | 22700 | 35200 | 9200 | 53700 | 303 | 470 | 123 | 718 | 74.8 | 61.9 | 1.2 | –
– | – | O[C@H](CNCCCC(F)(F)F)c1cc(C(F)(F)F)nc2c(C(F)(F)F)cccc12 | 11.4 | 8.55 | 1.3 | 7600 | 39500 | > 125000 | 35600 | 493 | 2560 | > 8120 | 2310 | 15.4 | 18.2 | 0.85 | –
4.5 | 85 | O[C@H](c1cc(C(F)(F)F)nc2c(C(F)(F)F)cccc12)[C@@H]1CCCCN1 [(R,S)-MEFLOQUINE] | – | – | – | – | – | – | – | – | – | – | – | – | – | – | microsomal CLint at 0.5 µM [19]: < 20 µL/min/mg; microsomal CLint at 0.5 µM [20]: < 20 µL/min/mg; microsomal CLint at 0.5 µM [21]: < 20 µL/min/mg; CLH [22]: 0.004 mL/h
– | – | O[C@H](CNCCNC(c1ccccc1)c1ccccc1)c1cc(C(F)(F)F)nc2c(C(F)(F)F)cccc12 | 35.2 | 29.6 | 1.2 | 6400 | 9000 | 8900 | 16600 | 268 | 377 | 372 | 694 | 23.9 | 14.1 | 1.7 | –
– | – | O[C@@H](CNCCCC(F)(F)F)c1cc(C(F)(F)F)nc2c(C(F)(F)F)cccc12 | 57.6 | 61 | 0.9 | 29700 | 45400 | 32800 | 14600 | 130 | 199 | 144 | 64 | 227 | 229 | 1 | –
– | – | OC[C@@H](Cc1ccccc1)NC[C@@H](O)c1cc(C(F)(F)F)nc2c(C(F)(F)F)cccc12 (single isomer, unassigned) | 35.6 | 10.3 | 3.5 | 15400 | 35800 | 7500 | 45400 | 151 | 345 | 73 | 444 | 102 | 82.7 | 1.2 | –
– | – | Cl.O[C@@H](c1cc(C(F)(F)F)nc2c(C(F)(F)F)cccc12)[C@H]1CCCCN1 (relative stereo) | – | – | – | – | – | – | – | – | – | – | – | – | – | – | Time (Plasmodium berghei [23]): <100 h
– | – | O[C@@H](CNCC1CC1)c1cc(C(F)(F)F)nc2c(C(F)(F)F)cccc12 | 23 | 16.8 | 1.4 | 6600 | 25400 | 12400 | 48400 | 369 | 1420 | 693 | 2700 | 17.9 | 15.3 | 1.2 | –
– | – | O[C@H](CNCCN1CCN(C(c2ccccc2)c2ccccc2)CC1)c1cc(C(F)(F)F)nc2c(C(F)(F)F)cccc12 | 75.7 | 63 | 1.2 | 7000 | 24800 | 10800 | 13300 | 60 | 213 | 93 | 114 | 116 | 89.3 | 1.3 | –
5.3 | 65 | CCCCCCCNC[C@@H](O)c1cc(C(F)(F)F)nc2c(C(F)(F)F)cccc12 | – | – | – | – | – | – | – | – | – | – | – | – | – | – | IC50 [3]: 7000 nM
0.5 | 90 | CCCCCCCNC[C@H](O)c1cc(C(F)(F)F)nc2c(C(F)(F)F)cccc12 | – | – | – | – | – | – | – | – | – | – | – | – | – | – | IC50 [3]: > 30000 nM

Compound | Papp A→B at 2 h, 20 µM [1] [×10⁻⁶ cm/s] | recovery at 2 h, 20 µM [2] [%] | IC50 (Plasmodium falciparum [5]) [nM] | IC50 (Plasmodium falciparum [6]) [nM] | Ratio IC50 (Plasmodium falciparum [7]) | IC50 at 72 h [8] [nM] | IC50 at 24 h [9] [nM] | IC50 at 72 h [10] [nM] | IC50 at 72 h [11] [nM] | selectivity ratio [12] | selectivity ratio [13] | selectivity ratio [14] | selectivity ratio [15] | IC50 (Plasmodium falciparum [16]) [nM] | IC50 (Plasmodium falciparum [17]) [nM] | Ratio IC50 (Plasmodium falciparum [18]) | other results
O[C@@H](c1cc(C(F)(F)F)nc2c(C(F)(F)F)cccc12)[C@H]1CCCCN1 [(S,R)-MEFLOQUINE] | 4.5 | 91 | – | 31.8 | – | – | – | – | – | – | – | – | – | 54.1 | 28.3 | – | microsomal CLint at 0.5 µM [19]: < 20 µL/min/mg; microsomal CLint at 0.5 µM [20]: < 20 µL/min/mg; microsomal CLint at 0.5 µM [21]: < 20 µL/min/mg; CLH [22]: 0.002 mL/h
